Measurements as given in patent publication US20130109682A1, “CYCLIC ETHER COMPOUNDS USEFUL AS KINASE INHIBITORS” (NOVARTIS AG, priority 2010, published 2013).
Like-named read-outs stand apart in the source and are kept apart here.

What was measured:
hERG = molecular target: T1, hERG (Homo sapiens, UniProt Q12809); test: hERG binding assay ([3H] dofetilide displacement); conditions: read-out: HERGdof IC50
T1 construct: host or cells: crude membrane suspension
Method: Compounds of the invention were pipetted into each well of pre-wet 96-well Millipore GF/C filter plates (#MSFCN6B50): 119 μl assay buffer, 1 μl test compound in 100% DMSO (or 100% DMSO only for total binding), 40 μl [3H] dofetilide (12.5 nM, final concentration 2.5 nM; Novartis radioisotope laboratory, East Hanover, N.J., USA, specific activity 15-45 Ci/mmol); 40 μl crude membrane suspension (ca. 15 μg protein). The final concentration of DMSO during the incubation was 0.5%. Incubations were performed at room temperature for 90 min. Non-specific binding (NSB) was defined as the binding remaining in the presence of 25 μM terfenadine (Sigma T9652). The incubations were terminated by rapid filtration on a Millipore filtration manifold, followed by three washes of 200 μA ice-cold assay buffer. The plates were left to dry overnight before adding 40 μA scintillant (MicroScint-20). The plates were then sealed (Sealing Tape SI, Nunc 236366) and read in a Wallac MicroBeta Trilux beta-counter for 1.5 min per well. Compounds were tested as 9-concentration response curves in duplicate, ranging from 30 μM to 3 nM in 1:3 dilution steps. Dilution curves were prepared in 100% DMSO. The reference compound (terfenadine) was tested as an eight-concentration response curve, ranging from 10 μM to 0.6 nM in 1:4 dilution steps.

cABLT315 kinase = cABLT315 kinase (Homo sapiens, UniProt P00519); test: cABLT315 kinase Caliper assay; type: biochemical
Method: PKCα and cABLT315 Kinase Caliper Assays
Assays were performed in 384 well microtiter plates. Each assay plate contained 8-point serial dilutions for test compounds, as well as two 16-point serial dilutions of staurosporine as reference compound, plus 16 high- and 16 low controls. Liquid handling and incubation steps were done on a Thermo CatX workstation equipped with a Innovadyne Nanodrop Express. Between pipetting steps, tips were cleaned in wash cycles using wash buffer. Plates with terminated kinase reactions were transferred to the Caliper LC3000 workstations for reading. Phosphorylated and unphosphorylated peptides were separated using the Caliper microfluidic mobilitishift technology and Kinase activities were calculated from the amounts of formed phospho-peptide.
Kinase reactions were prepared in 384 low volume plates by the following sequence:
1. 0.05 μA Compound (start with 1.8 mM in 90% DMSO/10% H2O)
2. +4.5 μl 2× peptide/ATP solution
3. +4.5 μl 2× enzyme solution
4. Incubate for 60 min at 30° C.
4. +16 μl stop/run buffer
Independent of the kinase, all reactions were done performed in 50 mM HEPES, pH 7.5, 1 mM DTT, 0.02% Tween20, 0.02% BSA, and 0.6% DMSO. For cABLT315 assay specific details were as follows: [cABLT315 kinase]=2.4 nM, [ATP]=10 uM, [peptide]=2 uM, [Mg]=10 mM. For PKCα, assay specific details were as follows: [kinase]=0.012 nM, [ATP]=17 uM, [peptide]=1 uM, [Mg]=7 mM, [Ca]=0.2 mM.

PIM2 = PIM2 (Homo sapiens, UniProt Q9P1W9); test: Pim 2 AlphaScreen assay (high ATP); type: biochemical; conditions: read-out: Pim2 IC50
How it was run: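 IC50 values rest on detection of phosphorylated Bad peptide: after a ~2 h kinase reaction, an EDTA stop buffer containing anti-phospho Ser/Thr antibody, Protein A and streptavidin AlphaScreen beads was added and read after overnight dark incubation. ATP was high (11-125× Km), with 2.5% DMSO in pH 7.5 Hepes buffer containing MgCl2, BSA, Tween-20 and DTT.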

KDR kinase = KDR kinase (Homo sapiens, UniProt P35968); test: KDR kinase inhibition assay (LanthaScreen TR-FRET); type: biochemical; conditions: TR-FRET assay
Method: KDR Kinase Inhibition Assay
LanthaScreen™ is the detection of Time-Resolved Fluorescence Resonance Energy Transfer (TR-FRET) using lanthanide chelates to measure interactions between various binding partners. The application of TR-FRET to assay kinase activity was first described by Mathis (1995). A TR-FRET assay was used to measure KDR kinase inhibitory activity. The assay panel was run on a Biomek FX liquid handling workstations. To the assay plates containing 50 nL compound or control solutions, 4.5 μL of buffer A (50 mM TRIS-HCl pH 7.4, 2 mM DTT, 0.02% Tween 20, 0.02 mM Na3VO4, H2O nanpure) including a generic concentration of ATP (2 μM f.c.) was added per well, followed by 4.5 μL of buffer B (4 uM ATP in Buffer A) including a generic concentration of polyEAY (50 nM f.c.), KDR kinase, and divalent cations. Final concentration of kinase and cations were: [KDR kinase]=0.38 nM, [Mg]=10 mM, [Ca]=1 mM. After 1 hour of incubation the kinase reactions were stopped by the addition of 4.5 μL of stop solution D (50 mM EDTA, 20 mM TRIS-HCl pH 7.4, 0.04% NP-40) immediately followed by 4.5 μL of buffer A (50 mM TRIS-HCl pH 7.4, 2 mM DTT, 0.02% Tween 20, 0.02 mM Na3VO4, H2O nanpure) including the Tb-labeled P-20 antibody to give a total detection volume of 18 μL. After an incubation time of 45 min in the dark, the plates were transferred into the Pherastar fluorescence reader for counting. The effect of compound on the enzymatic activity was obtained from the linear progress curves and determined from one reading (end point measurement).

T1 sequence (Q12809 whole entry): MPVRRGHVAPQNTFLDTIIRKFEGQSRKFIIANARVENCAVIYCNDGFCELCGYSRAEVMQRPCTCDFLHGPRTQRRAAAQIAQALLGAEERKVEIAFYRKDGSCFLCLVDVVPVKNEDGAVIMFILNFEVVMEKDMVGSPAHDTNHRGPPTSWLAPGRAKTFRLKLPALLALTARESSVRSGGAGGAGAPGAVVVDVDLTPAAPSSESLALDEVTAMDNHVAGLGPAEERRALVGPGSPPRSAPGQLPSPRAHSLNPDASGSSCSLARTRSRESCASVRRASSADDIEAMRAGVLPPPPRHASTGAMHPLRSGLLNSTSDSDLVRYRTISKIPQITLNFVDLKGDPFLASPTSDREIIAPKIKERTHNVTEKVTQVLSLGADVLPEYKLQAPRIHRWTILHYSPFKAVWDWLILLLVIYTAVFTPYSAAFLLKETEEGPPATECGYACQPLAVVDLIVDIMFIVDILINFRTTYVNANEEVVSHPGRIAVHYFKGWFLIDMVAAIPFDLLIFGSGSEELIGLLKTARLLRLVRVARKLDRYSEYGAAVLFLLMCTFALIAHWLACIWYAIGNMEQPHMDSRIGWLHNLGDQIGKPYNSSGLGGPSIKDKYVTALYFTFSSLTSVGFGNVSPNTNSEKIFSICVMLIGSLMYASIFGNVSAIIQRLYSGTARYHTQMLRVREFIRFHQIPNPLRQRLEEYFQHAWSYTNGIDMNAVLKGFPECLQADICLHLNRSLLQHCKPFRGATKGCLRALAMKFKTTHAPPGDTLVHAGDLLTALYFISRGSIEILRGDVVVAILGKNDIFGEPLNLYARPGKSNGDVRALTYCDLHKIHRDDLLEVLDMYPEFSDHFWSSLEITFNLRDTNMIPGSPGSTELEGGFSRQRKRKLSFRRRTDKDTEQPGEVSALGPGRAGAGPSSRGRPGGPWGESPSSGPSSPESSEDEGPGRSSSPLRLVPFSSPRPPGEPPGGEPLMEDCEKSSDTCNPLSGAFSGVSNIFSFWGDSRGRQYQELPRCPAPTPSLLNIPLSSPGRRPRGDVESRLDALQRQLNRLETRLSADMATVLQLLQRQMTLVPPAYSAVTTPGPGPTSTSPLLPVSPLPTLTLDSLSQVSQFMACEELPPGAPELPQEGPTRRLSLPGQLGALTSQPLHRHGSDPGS
PIM2, sequence (Q9P1W9 whole entry): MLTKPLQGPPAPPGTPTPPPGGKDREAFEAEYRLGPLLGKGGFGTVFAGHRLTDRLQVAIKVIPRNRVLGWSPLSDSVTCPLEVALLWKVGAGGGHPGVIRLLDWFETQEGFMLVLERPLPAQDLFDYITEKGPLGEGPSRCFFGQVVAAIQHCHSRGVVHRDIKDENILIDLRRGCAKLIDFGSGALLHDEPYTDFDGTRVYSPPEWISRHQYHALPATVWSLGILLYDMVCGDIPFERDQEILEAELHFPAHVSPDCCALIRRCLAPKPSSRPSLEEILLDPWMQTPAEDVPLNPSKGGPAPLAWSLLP
KDR kinase, sequence (P35968 20-1356): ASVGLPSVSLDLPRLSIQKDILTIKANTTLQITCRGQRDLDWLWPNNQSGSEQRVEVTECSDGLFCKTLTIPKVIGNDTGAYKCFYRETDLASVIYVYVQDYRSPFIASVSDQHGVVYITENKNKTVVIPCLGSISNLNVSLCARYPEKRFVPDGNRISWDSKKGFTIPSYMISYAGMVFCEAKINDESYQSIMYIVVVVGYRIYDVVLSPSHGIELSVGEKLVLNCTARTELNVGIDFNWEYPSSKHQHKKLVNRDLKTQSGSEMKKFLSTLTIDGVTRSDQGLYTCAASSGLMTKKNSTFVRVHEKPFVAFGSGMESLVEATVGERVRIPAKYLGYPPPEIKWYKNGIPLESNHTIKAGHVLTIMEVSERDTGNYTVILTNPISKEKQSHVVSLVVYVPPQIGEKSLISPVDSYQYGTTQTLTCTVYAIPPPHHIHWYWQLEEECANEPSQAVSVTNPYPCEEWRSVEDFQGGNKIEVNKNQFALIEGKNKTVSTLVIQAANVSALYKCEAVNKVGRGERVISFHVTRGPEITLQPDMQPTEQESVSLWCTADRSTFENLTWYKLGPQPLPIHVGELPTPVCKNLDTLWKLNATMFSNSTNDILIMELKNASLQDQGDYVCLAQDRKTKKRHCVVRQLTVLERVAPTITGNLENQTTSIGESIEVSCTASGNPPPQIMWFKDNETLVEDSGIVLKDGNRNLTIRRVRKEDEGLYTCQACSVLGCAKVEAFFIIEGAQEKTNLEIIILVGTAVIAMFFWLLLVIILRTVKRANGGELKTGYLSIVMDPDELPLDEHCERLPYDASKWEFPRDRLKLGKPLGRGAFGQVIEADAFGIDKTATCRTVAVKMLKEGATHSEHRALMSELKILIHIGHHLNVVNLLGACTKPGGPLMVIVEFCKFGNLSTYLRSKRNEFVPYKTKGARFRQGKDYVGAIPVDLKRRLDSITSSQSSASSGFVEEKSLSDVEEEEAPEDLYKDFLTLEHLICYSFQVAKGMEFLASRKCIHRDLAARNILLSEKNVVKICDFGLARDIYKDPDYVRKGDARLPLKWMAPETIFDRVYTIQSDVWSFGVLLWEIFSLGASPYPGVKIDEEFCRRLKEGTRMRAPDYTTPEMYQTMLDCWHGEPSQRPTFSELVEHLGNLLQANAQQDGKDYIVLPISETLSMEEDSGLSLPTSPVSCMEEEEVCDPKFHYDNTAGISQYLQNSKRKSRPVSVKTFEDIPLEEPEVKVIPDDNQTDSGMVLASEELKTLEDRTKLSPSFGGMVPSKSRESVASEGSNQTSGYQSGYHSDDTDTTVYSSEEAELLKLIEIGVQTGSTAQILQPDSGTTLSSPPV

| Compound | IC50 (hERG; dofetilide displacement) [µM] | IC50 (cABLT315 kinase) [µM] | IC50 (hERG; hERG binding, dofetilide) [µM] | IC50 (cABLT315 kinase; Caliper assay) [µM] | IC50 (PIM2) [µM] | IC50 (KDR kinase) [µM] |
| --- | --- | --- | --- | --- | --- | --- |
| CC[C@]1(O)[C@H](O)C[C@H](c2ccncc2NC(=O)c2nc(-c3c(F)cccc3F)ncc2N)O[C@@H]1C [Example 143, 5-amino-2-(2,6-difluorophenyl)-N-(4-((2R,4R,5S,6R)-5-ethyl-4,5-dihydroxy-6-methyltetrahydro-2H-pyran-2-yl)pyridin-3-yl)pyrimidine-4-carboxamide] | > 30 | > 10 | – | – | – | – |
| Nc1ncc(-c2ccccc2)nc1C(=O)Nc1cnccc1[C@H]1C[C@@H](O)[C@@]2(O)CCCC[C@H]2O1 [Example 173, 3-amino-N-(4-((2R,4R,4aS,8aR)-4,4a-dihydroxyoctahydro-2H-chromen-2-yl)pyridin-3-yl)-6-phenylpyrazine-2-carboxamide] | > 30 | 0.07 | – | – | – | – |
| Nc1ncc(-c2ccccc2)nc1C(=O)Nc1cnccc1[C@@H]1C[C@H](O)[C@]2(O)CCCC[C@@H]2O1 [Example 176, 3-amino-N-(4-((2S,4S,4aR,8aS)-4,4a-dihydroxyoctahydro-2H-chromen-2-yl)pyridin-3-yl)-6-phenylpyrazine-2-carboxamide] | > 30 | 7.4 | – | – | – | – |
| O=C(Nc1cnccc1[C@H]1C[C@@H](O)[C@@]2(O)CCCC[C@H]2O1)c1c[nH]cc(-c2ccccc2)c1=O [Example 178, N-(4-((2R,4R,4aS,8aR)-4,4a-dihydroxyoctahydro-2H-chromen-2-yl)pyridin-3-yl)-4-oxo-5-phenyl-1,4-dihydropyridine-3-carboxamide] | > 30 | > 10 | – | – | – | – |
| Nc1ncc(-c2ccccc2)nc1C(=O)Nc1cnccc1[C@@H]1C[C@H](O)[C@]2(O)CCC[C@@H]2O1 [Example 186, 3-amino-N-(4-((2S,4S,4aR,7aS)-4,4a-dihydroxyoctahydrocyclopenta[b]pyran-2-yl)pyridin-3-yl)-6-phenylpyrazine-2-carboxamide] | > 30 | 9.9 | – | – | – | – |
| Nc1ncc(-c2ccccc2)nc1C(=O)Nc1cnccc1[C@H]1C[C@@H](O)[C@@]2(O)CCC[C@H]2O1 [Example 195, 3-amino-N-(4-((2R,4R,4aS,7aR)-4,4a-dihydroxyoctahydrocyclopenta[b]pyran-2-yl)pyridin-3-yl)-6-phenylpyrazine-2-carboxamide] | > 30 | 0.09 | – | – | – | – |
| O=C1CC[C@H]2O[C@@H](c3ccncc3NC(=O)c3ccc(F)c(-c4c(F)cccc4F)n3)C[C@@H](O)[C@@H]2N1 [Example 196, 6-(2,6-difluorophenyl)-5-fluoro-N-(4-((2R,4R,4aS,8aR)-4-hydroxy-6-oxooctahydro-2H-pyrano[3,2-b]pyridin-2-yl)pyridin-3-yl)picolinamide] | > 30 | > 10 | – | – | – | – |
| N[C@@H]1C[C@H](c2ccncc2NC(=O)c2ccc(F)c(-c3c(F)cccc3F)n2)O[C@@H]2CCC[C@]12O [Example 210, N-(4-((2R,4R,4aS,7aR)-4-amino-4a-hydroxyoctahydrocyclopenta[b]pyran-2-yl)pyridin-3-yl)-6-(2,6-difluorophenyl)-5-fluoropicolinamide] | 10 | > 10 | – | – | – | – |
| Nc1cnc(-c2c(F)cccc2F)nc1C(=O)Nc1cnccc1[C@H]1C[C@@H](N)[C@@]2(O)CCC[C@H]2O1 [Example 213, 5-amino-N-(4-((2R,4R,4aS,7aR)-4-amino-4a-hydroxyoctahydrocyclopenta[b]pyran-2-yl)pyridin-3-yl)-2-(2,6-difluorophenyl)pyrimidine-4-carboxamide] | > 30 | > 10 | – | – | – | – |
| C[C@H]1O[C@@H](c2ccncc2NC(=O)c2ccc(F)c(-c3c(F)cccc3F)n2)C[C@@H](N)[C@]1(C)O [Example 219, N-(4-((2R,4R,5S,6R)-4-amino-5-hydroxy-5,6-dimethyltetrahydro-2H-pyran-2-yl)pyridin-3-yl)-6-(2,6-difluorophenyl)-5-fluoropicolinamide] | – | – | 16 | > 10 | 0.0085 | – |
| N[C@@H]1C[C@H](c2ccncc2NC(=O)c2ccc(F)c(-c3c(F)cccc3F)n2)O[C@@H]2CCC[C@H]12 [Example 224, N-(4-((2R,4R,4aR,7aR)-4-aminooctahydrocyclopenta[b]pyran-2-yl)pyridin-3-yl)-6-(2,6-difluorophenyl)-5-fluoropicolinamide] | – | – | 2 | > 10 | – | – |
| N[C@H]1C[C@@H](c2ccncc2NC(=O)c2csc(-c3c(F)cccc3F)n2)O[C@H]2CCC[C@H]21 [Example 230, N-(4-((2S,4S,4aS,7aS)-4-aminooctahydrocyclopenta[b]pyran-2-yl)pyridin-3-yl)-2-(2,6-difluorophenyl)thiazole-4-carboxamide] | – | – | 4 | > 10 | – | – |
| CC[C@]1(O)[C@H](N)C[C@H](c2ccncc2NC(=O)c2ccc(F)c(-c3c(F)cccc3F)n2)O[C@@H]1C [Example 232, N-(4-((2R,4R,5S,6R)-4-amino-5-ethyl-5-hydroxy-6-methyltetrahydro-2H-pyran-2-yl)pyridin-3-yl)-6-(2,6-difluorophenyl)-5-fluoropicolinamide] | – | – | 5 | > 10 | – | – |
| Nc1cc(F)c(-c2c(F)cccc2F)nc1C(=O)Nc1cnccc1[C@H]1C[C@@H](N)[C@@]2(O)CCCC[C@H]2O1 [Example 238, 3-amino-N-(4-((2R,4R,4aS,8aR)-4-amino-4a-hydroxyoctahydro-2H-chromen-2-yl)pyridin-3-yl)-6-(2,6-difluorophenyl)-5-fluoropicolinamide] | – | – | 4 | > 10 | 0.0018 | – |
| CC1(C)C[C@@H](N)C[C@H](c2ccncc2NC(=O)c2nc(-c3ccccc3)cnc2N)O1 [Example 296, 3-amino-N-(4-((2R,4S)-4-amino-6,6-dimethyltetrahydro-2H-pyran-2-yl)pyridin-3-yl)-6-phenylpyrazine-2-carboxamide] | – | – | – | 0.11 | 0.283 | – |
| CC1(C)C[C@H](N)C[C@@H](c2ccncc2NC(=O)c2nc(-c3ccccc3)cnc2N)O1 [Example 297, 3-amino-N-(4-((2S,4R)-4-amino-6,6-dimethyltetrahydro-2H-pyran-2-yl)pyridin-3-yl)-6-phenylpyrazine-2-carboxamide] | – | – | – | 0.86 | 0.514 | – |
| CC(C)[C@H]1O[C@@H](c2ccncc2NC(=O)c2nc(-c3ccccc3)cnc2N)C[C@@H](N)[C@@H]1O [Example 356, 3-amino-N-(4-((2R,4R,5S,6R)-4-amino-5-hydroxy-6-isopropyltetrahydro-2H-pyran-2-yl)pyridin-3-yl)-6-phenylpyrazine-2-carboxamide] | – | – | – | – | 0.0281 | 0.043 |
